Values after ≈ are worked out from the molar mass of the structure shown. Structures can show the parent of a compound that is named as a salt.

One may read the solubility as how much of the substance goes into solution per volume.

One data set deals with T1, recombinant Raf-1 protein (activated type GST-Raf-1) (Homo sapiens, UniProt P04049).
T1 construct: fused on or other part: GST tag fused to Raf-1
T1 sequence (P04049 349-648 limits assumed): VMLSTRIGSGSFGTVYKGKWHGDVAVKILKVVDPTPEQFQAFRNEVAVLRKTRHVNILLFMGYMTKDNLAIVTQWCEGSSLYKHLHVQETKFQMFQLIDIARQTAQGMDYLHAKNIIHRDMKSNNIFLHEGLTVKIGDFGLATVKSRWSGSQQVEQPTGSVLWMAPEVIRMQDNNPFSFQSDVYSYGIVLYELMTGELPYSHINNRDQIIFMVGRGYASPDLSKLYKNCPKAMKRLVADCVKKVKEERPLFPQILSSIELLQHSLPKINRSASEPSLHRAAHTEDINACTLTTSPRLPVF
Description: RAF-1 enzyme inhibition test (33P incorporation into MEK 1 protein). In kind it is biochemical. The settings on record: 10 μM ATP, GST-MEK1 substrate, 30° C., 45 minutes; read-out: Raf-1 Enzyme Inhibition, 50% Enzyme Inhibition Concentration (IC50 value). How it is done:
RAF-1 Enzyme Inhibition Test
With respect to the compounds relating to the present invention and the known compound (BAY 43-9006):
[drawing 660] the Raf-1 protein inhibition activity was measured. The enzymatic reaction was measured by incorporation of ^33P-phosphoric acid into MEK 1 protein by a recombinant Raf-1 protein. The activity was measured by preparing 50 μL of a reaction solution containing a dimethyl sulfoxide solution of the compound relating to the present invention or the compound BAY 43-9006 at a varied concentration [as the final concentration, the reaction solution containing […] of TRIS hydrochloric buffer (pH 7.5), 1 mM of dithiothreitol, 100 mM of sodium chloride, 10 mM of potassium fluoride, 1 mM of sodium vanadate, 10 mM of magnesium chloride, 10 μM of adenosine triphosphate (ATP, containing ^33P-ATP of 12580Bq), 2 μg of GST-MEK1 and 25 ng of an activated type GST-Raf-1]; keeping the reaction solution at 30° C. for 45 minutes; adding 100% trichloroacetic acid to the reaction solution in an amount twice the volume of the reaction solution to precipitate a proteinous component; recovering the precipitate on a glass filter; and measuring the radioactivity of the recovered product. The 50% inhibition concentration (IC50) was obtained from the inhibition ratio to a sample-free reference.
The compound BAYT 43-9006 was prepared on the basis of the description (Example 41) of WO 00/42012.
With `CC(=O)Oc1cccc2c1ccn2-c1ccc(NC(=O)Nc2ccc(Cl)c(C(F)(F)F)c2)cc1` [Table 1, Compound 18, Acetic acid 1-{4-[3-(4-chloro-3-(trifluoromethyl)phenyl)ureido]phenyl}-1H-indol-4-yl ester], the IC50 is 47 nM.

For `Nc1ncnc2c1ncn2-c1ccc(NC(=O)Nc2ccc(Cl)c(C(F)(F)F)c2)cc1` [Table 1, Compound 30, 1-[4-(6-Aminopurin-9-yl)phenyl]-3-(4-chloro-3-(trifluoromethyl)phenyl)urea hydrochloride], the IC50 was determined as 33 nM.

On to `O=C(Nc1ccc(Cl)c(C(F)(F)F)c1)N(O)c1ccc(-n2cnc3ncncc32)cc1` [Table 1, Compound 46, 1-(4-Chloro-3-(trifluoromethyl)phenyl)-3-hydroxy-3-(4-purin-7-ylphenyl)urea], for which the IC50 was determined as 67 nM. On the same count and under the same terms, the same measure for `C=Cc1nc2c(N)ncnc2n1-c1ccc(NC(=O)Nc2ccc(Cl)c(C(F)(F)F)c2)cc1` [Table 2, Compound 8, 1-[4-(6-Amino-8-vinylpurin-9-yl)phenyl]-3-(4-chloro-3-(tri-fluoromethyl)phenyl)urea]: 29 nM; for `C=Cc1nc2c(NC(=O)NCCC)ncnc2n1-c1ccc(NC(=O)Nc2ccc(Cl)c(C(F)(F)F)c2)cc1` [Table 2, Compound 13, 1-(9-{4-[3-(4-Chloro-3-(tri-fluoromethyl)phenyl)ureido]-phenyl}-8-vinyl-9H-purin-6-yl)-3-propylurea]: 15 nM; for `CN1CCN(Cc2cc(NC(=O)Nc3ccc(-n4c(I)nc5c(N)ncnc54)cc3)cc(C(F)(F)F)c2)CC1` [Table 2, Compound 27]: 67 nM. Same read-out and setting: the same measure for `CNc1ncnc2c1ncn2-c1ccc(NC(=O)Nc2cc(C(=O)NCCN(C)C)cc(C(F)(F)F)c2)cc1` [Table 2, Compound 40, N-(2-Dimethylaminoethyl)-3-{3-[4-(6-(methylamino)purin-9-yl)phenyl]ureido}-5-(trifluoromethyl)benzamide]: 75 nM; for `CNc1ncnc2c1ncn2-c1ccc(NC(=O)Nc2cc(C(=O)NCC(O)CO)cc(C(F)(F)F)c2)cc1` (centres unmarked) [Table 2, Compound 57]: 130 nM.

As to `CNc1ncnc2c1ncn2-c1ccc(NC(=O)Nc2cc(CCN(C)C)cc(C(F)(F)F)c2)cc1` [Table 2, Compound 71, 1-[3-(2-Dimethylamino-ethyl)-5-(trifluoromethyl)phenyl]-3-[4-(6-(methylamino)purin-9-yl)phenyl]urea], the IC50 is 190 nM.

System in a further data set: not listed separately
Description: Solubility to fasted state simulated intestinal fluid. In kind it is physicochemical. The settings on record: fassif, kinetic from dmso stock, fasted state simulated intestinal fluid (pH 6.5), 37° C. As for the experimental part: Method of Measuring Solubility to Fasted State Simulated Intestinal Fluid
To a 96-well plate, 2 μL of a dimethyl sulfoxide solution of the compound relating to the present invention or that of the compound BAY 43-9006 was poured at one time, respectively, and fasted state simulated intestinal fluid (pH 6.5) was added 200 μL by 200 μL, and the plate was shaken at 37° C. for 20 hours. The solution was filtered with a membrane filter and 101 μL of the filtrate was transferred to an UV plate, and 100 μL of a mixed solution of ethanol:water=2:1 was added thereto. On the other hand, as a standard solution, 2 μL of a dimethyl sulfoxide solution was added to a solution containing 4 μL of dimethyl sulfoxide, 400 μL of ethanol and 200 μL of water and the obtained solution was transferred 101 μL by 101 μL to the UV plate and to this UV plate, the simulated fasting bile-containing intestinal juice (pH 6.5) was added 100 μL by 100 μL. The solubility was calculated by the following equation. Solubility=(absorbance of sample solution-blank)/(absorbance of standard solution-blank)×[…]
165 μL is a concentration of the standard solution.
Composition of Fasted State Simulated Intestinal Fluid
Fasted state simulated intestinal fluid was prepared in accordance with E. Galia et al., Pharm. Res., 698, 1998.
To about 90 mL of water, 161 mg of taurocholic acid, 59 mg of L-α-phosphatidylcholine, 0.39 g of potassium dihydrogenphosphate and 0.77 g of potassium chloride were added and the pH of the mixture solution […] and the mixture solution was filtered with a membrane filter.
For `CNCCOc1cccc2c1ccn2-c1ccc(NC(=O)Nc2ccc(Cl)c(C(F)(F)F)c2)cc1.Cl` [Table 1, Compound 21, 1-(4-Chloro-3-(trifluoromethyl)phenyl)-3-{4-[4-(2-methylamino-ethoxy)-indol-1-yl]phenyl}urea hydrochloride], the solubility at 20 h is 24 µg/mL. The same measure, in the same setting: the same measure for `Cl.Nc1ncc2ncn(-c3ccc(NC(=O)Nc4ccc(Cl)c(C(F)(F)F)c4)cc3)c2n1` [Table 1, Compound 34, 1-[4-(2-Aminopurin-9-yl)phenyl]-3-(4-chloro-3-(trifluoromethyl)phenyl)urea hydrochloride]: 34 µg/mL; for `CN(C)CCNC(=O)c1nccc2c1ncn2-c1ccc(NC(=O)Nc2ccc(Cl)c(C(F)(F)F)c2)cc1` [Table 1, Compound 92, 1-(4-[3-(4-Chloro-3-(trifluoro-methyl)phenyl)ureido]phenyl}-1H-imidazo[4,5-c]pyridine-4-carboxylic acid (2-dimethyl-aminoethyl)amide]: 76 µg/mL (≈ 139 µM). Same read-out and setting: the value for `COCCOCCOCC(=O)Nc1ncnc2c1ncn2-c1ccc(NC(=O)Nc2ccc(Cl)c(C(F)(F)F)c2)cc1` [Table 1, Compound 109, N-(9-{4-[3-(4-Chloro-3-(tri-fluoromethyl)phenyl)ureido]-phenyl}-9H-purin-6-yl)-2-[2-(2-methoxyethoxy)ethoxy]acetamide] was 39 µg/mL (≈ 64.1 µM); that for `COCCOC(=O)Nc1ncnc2c1ncn2-c1ccc(NC(=O)Nc2ccc(Cl)c(C(F)(F)F)c2)cc1` [Table 1, Compound 115, (9-{4-[3-(4-Chloro-3-(tri-fluoromethyl)phenyl)ureido]-phenyl}-9H-purin-6-yl)carbamic acid 2-methoxyethyl ester] was 19 µg/mL (≈ 34.6 µM); that for `O=C(Nc1ccc(-n2cnc3c(NCCN4CCOCC4)ncnc32)cc1)Nc1ccc(Cl)c(C(F)(F)F)c1` [Table 2, Compound 11, 1-(4-Chloro-3-(trifluoromethyl)-phenyl)-3-{4-[6-(2-morpholin-4-yl-ethylamino)purin-9-yl]-phenyl}urea] was 38 µg/mL (≈ 67.7 µM).

In the case of `CN(C)Cc1nc2c(N)ncnc2n1-c1ccc(NC(=O)Nc2ccc(Cl)c(C(F)(F)F)c2)cc1` [Table 2, Compound 12, 1-[4-(6-Amino-8-dimethylamino-methyl-purin-9-yl)phenyl]-3-(4-chloro-3-(trifluoromethyl)-phenyl)urea], the solubility at 20 h was 265 µg/mL (≈ 525 µM). The same measure, in the same setting: the value for `CNc1ncnc2c1nc(OC)n2-c1ccc(NC(=O)Nc2ccc(Cl)c(C(F)(F)F)c2)cc1` [Table 2, Compound 21, 1-(4-Chloro-3-(trifluoromethyl)-phenyl)-3-[4-(8-methoxy-6-(methylamino)purin-9-yl)phenyl]-urea] was 120 µg/mL (≈ 244 µM); that for `CCc1nc2c(N)ncnc2n1-c1ccc(NC(=O)Nc2cc(CN3CCN(C)CC3)cc(C(F)(F)F)c2)cc1` [Table 2, Compound 32] was 175 µg/mL (≈ 316 µM). Consider `CN1CCN(Cc2cc(NC(=O)Nc3ccc(-n4cnc5c(C(N)=O)nccc54)cc3)cc(C(F)(F)F)c2)CC1` [Table 2, Compound 33, 1-(4-{3-[3-(4-Methylpiperazin-1-ylmethyl)-5-(trifluoromethyl)-phenyl]ureido}-phenyl)-1H-imidazo[4,5-c]pyridine-4-carboxamide], for which the concentration in solution (solubility at 20 h) came to 193 µg/mL (≈ 349 µM). The solubility at 20 h values of the last two compounds are within 1.5-fold of each other.

`CN(C)CCN(C)c1ccc(NC(=O)Nc2ccc(-n3cnc4c(N)ncnc43)cc2)cc1C(F)(F)F` [Table 2, Compound 35, 1-[4-(6-Aminopurin-9-yl)phenyl]-3-{4-[(2-dimetylaminoethyl)-methylamino]-3-(trifluoro-methyl)phenyl]urea] came in with a solubility at 20 h of 149 µg/mL (≈ 290 µM). This solubility at 20 h and that of the compound before are within 1.5-fold of each other. In turn, `CNc1ncnc2c1ncn2-c1ccc(NC(=O)Nc2cc(C(=O)N3CCN(C)CC3)cc(C(F)(F)F)c2)cc1` [Table 2, Compound 39] had a solubility at 20 h of 48 µg/mL (≈ 86.7 µM). This solubility at 20 h lies about 3.1-fold lower than the previous one. Still for that read-out and setting: the same measure for `CNc1ncnc2c1ncn2-c1ccc(NC(=O)Nc2ccc(CCCN3CCCC3)c(C(F)(F)F)c2)cc1` [Table 2, Compound 77, 1-[4-(6-(Methylamino)purin-9-yl)phenyl]-3-[4-[3-pyrrolidin-1-yl-propyl]-3-(trifluoromethyl)phenyl]-urea]: 34 µg/mL (≈ 63.1 µM). The compound `CNc1ncnc2c1ncn2-c1ccc(NC(=O)Nc2ccc(CNCCN3CCCC3)c(C(F)(F)F)c2)cc1` [Table 3, Compound 15] gave a solubility at 20 h of 104 µg/mL (≈ 188 µM). The same measure, in the same setting: the same measure for `CNc1ncnc2c1ncn2-c1ccc(NC(=O)Nc2ccc(CCN(C)CCN(C)C)c(C(F)(F)F)c2)cc1` [Table 3, Compound 36, 1-(4-{2-[(2-(Dimethylamino)ethyl)-methylamino]-ethyl}-3-(trifluoromethyl)phenyl)-3-[4-(6-(methylamino)-purin-9-yl)phenyl]urea]: 107 µg/mL (≈ 193 µM); for `CNc1ncnc2c1ncn2-c1ccc(NC(=O)Nc2ccc(CCN3CCN(C(C)C)CC3)c(C(F)(F)F)c2)cc1` [Table 3, Compound 37, 1-{4-[2-(4-Isopropyl-piperazin-1-yl)ethyl]-3-(trifluoromethyl)phenyl}-3-[4-(6-(methylamino)purin-9-yl)phenyl]urea]: 193 µg/mL (≈ 332 µM); for `CNc1ncnc2c1ncn2-c1ccc(NC(=O)Nc2ccc(CCN(C)CCCN(C)C)c(C(F)(F)F)c2)cc1` [Table 3, Compound 38, 1-(4-{2-[(3-(Dimethylamino)propyl)methylamino]ethyl}-3-(trifluoromethyl)phenyl)-3-[4-(6-(methylamino)purin-9-yl)phenyl]urea]: 147 µg/mL (≈ 258 µM).

These data come from patent US8609656B2, “Heteroarylphenylurea derivative” (Chugai Seiyaku Kabushiki Kaisha, priority 2004, dated 2013).
